Values of other authors, collected in US10792481B2, “Implantable drug delivery device” (Nano Precision Medical, Inc., priority 2014, dated 2020).

Conditions: 37° C., 0.2 atmosphere partial pressure

- solubility of oxygen in water: about 7 mg/liter
SMILES: O=O [oxygen]
